Publication PMC10252614 (International Journal of Molecular Sciences, 2023)

Tests used:
human BChE (hBChE) = biological target: T1, human BChE (hBChE) (Homo sapiens, UniProt P06276); test: hBChE inhibition, modified Ellman's method; format: biochemical; settings: 10^-6 M
T1 construct: made in house
Protocol: (§1) N-Methylpropargylamine-quinazolines were tested for their inhibitory potency against human AChE (hAChE) and human BChE (hBChE) enzymes using the modified spectrophotometric method of Ellman et al..
(§2) The human recombinant BChE and AChE were prepared at the Department of Toxicology and Military Pharmacy (Faculty of Military Health Sciences, Hradec Kralove, Czech Republic). 5,5′-dithiobis(2-nitrobenzoic acid) (Ellman’s reagent, DTNB), phosphate buffer (PB, pH 7.4), acetylthiocholine (ATC) and butyrylthiocholine (BTC), were purchased from Sigma-Aldrich, Prague, Czech Republic. For measuring purposes, polystyrene Nunc 96-well microplates with a flat-bottom shape (ThermoFisher Scientific, Waltham, MA, USA) were utilized. All the assays were carried out in 0.1 M KH2PO4/K2HPO4 buffer, pH 7.4. Enzyme solutions were prepared at 2.0 units/mL in 2 mL aliquots. The assay medium consisted of a 0.1 M phosphate buffer (pH 7.4), 0.01 M DTNB, the enzyme, and 0.01 M substrate (ATC/BTC iodide solution). Concentration 1 µM was tested and the % of inhibition was calculated. Tested compounds were pre-incubated for 5 min. The reaction was started by immediate addition of 20 μL of the substrate. […] Each concentration was assayed in triplicate. Software GraphPad Prism 5 (San Diego, CA, USA) was used for the statistical data evaluation.

GluN1/GluN2B receptor = biological target: T2, GluN1/GluN2B receptor (Homo sapiens, UniProt Q05586+Q13224); test: whole-cell patch-clamp on HEK293 cells expressing GluN1/GluN2B NMDAR; format: cell-based; settings: HEK293, 10 µM, −60 mV, ± SEM (n = 5–6), 100% = full inhibition; read-out: Relative inhibition (RI) of GluN1/GluN2B NMDAR
T2 construct: expressed in transfected cells; host or cells: HEK293
T2 sequence (Q13224 27-1484, other chains not shown): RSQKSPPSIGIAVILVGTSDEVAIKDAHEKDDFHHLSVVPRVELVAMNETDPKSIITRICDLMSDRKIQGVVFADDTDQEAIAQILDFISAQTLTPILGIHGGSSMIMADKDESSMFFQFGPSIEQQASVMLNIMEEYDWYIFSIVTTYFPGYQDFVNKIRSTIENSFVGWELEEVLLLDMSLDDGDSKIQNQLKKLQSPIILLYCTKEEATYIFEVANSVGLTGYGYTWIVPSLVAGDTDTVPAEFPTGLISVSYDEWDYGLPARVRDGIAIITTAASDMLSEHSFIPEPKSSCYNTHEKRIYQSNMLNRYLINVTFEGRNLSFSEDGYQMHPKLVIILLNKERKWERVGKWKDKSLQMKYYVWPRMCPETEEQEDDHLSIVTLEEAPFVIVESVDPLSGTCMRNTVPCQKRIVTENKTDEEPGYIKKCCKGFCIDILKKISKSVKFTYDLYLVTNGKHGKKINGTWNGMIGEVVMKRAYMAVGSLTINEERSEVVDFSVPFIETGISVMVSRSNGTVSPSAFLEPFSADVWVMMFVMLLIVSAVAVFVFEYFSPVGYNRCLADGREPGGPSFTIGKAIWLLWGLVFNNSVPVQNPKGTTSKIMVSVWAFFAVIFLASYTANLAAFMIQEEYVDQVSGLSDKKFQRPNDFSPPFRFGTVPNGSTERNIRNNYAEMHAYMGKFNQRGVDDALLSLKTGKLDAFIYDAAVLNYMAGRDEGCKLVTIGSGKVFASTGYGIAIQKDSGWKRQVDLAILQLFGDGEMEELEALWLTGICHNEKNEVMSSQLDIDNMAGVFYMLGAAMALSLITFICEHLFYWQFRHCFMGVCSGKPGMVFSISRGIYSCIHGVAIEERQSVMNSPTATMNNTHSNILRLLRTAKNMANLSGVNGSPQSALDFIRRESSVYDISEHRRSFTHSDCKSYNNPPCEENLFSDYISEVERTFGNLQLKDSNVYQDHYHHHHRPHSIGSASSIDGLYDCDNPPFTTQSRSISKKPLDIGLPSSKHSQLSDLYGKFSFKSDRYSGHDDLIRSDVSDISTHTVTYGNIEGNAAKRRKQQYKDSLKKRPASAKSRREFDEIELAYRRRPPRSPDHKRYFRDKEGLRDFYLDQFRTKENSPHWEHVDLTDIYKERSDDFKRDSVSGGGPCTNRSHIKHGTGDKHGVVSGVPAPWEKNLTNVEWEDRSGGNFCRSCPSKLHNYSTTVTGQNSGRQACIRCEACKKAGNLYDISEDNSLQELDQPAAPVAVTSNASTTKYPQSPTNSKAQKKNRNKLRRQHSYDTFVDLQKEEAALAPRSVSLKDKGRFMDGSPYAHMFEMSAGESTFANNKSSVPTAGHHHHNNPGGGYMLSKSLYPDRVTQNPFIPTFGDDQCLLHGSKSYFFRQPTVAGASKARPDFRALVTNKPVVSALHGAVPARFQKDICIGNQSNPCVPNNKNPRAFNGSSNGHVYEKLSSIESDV
Protocol: We tested the derivatives by the whole-cell patch-clamp method at a concentration of 10 μM under steady-state conditions in the presence of the saturating concentrations of NMDAR (co-)agonists (L-glutamate and glycine). […] Whole-cell patch-clamp recordings were performed using an Axopatch 200B amplifier (Molecular Devices, LLC., San Jose, CA, USA) at a holding membrane potential of −60 mV. HEK293 cells were co-transfected with DNA vectors encoding human versions of the GluN1-4a (GluN1) and GluN2B subunits and green fluorescent protein (GFP) in a 1:1:1 ratio using 0.9 μL PolyMag reagent (OZ Biosciences SAS, Marseille, France) in 50 μL Opti-MEM I [56, 57]. After 15 min on a magnetic plate, HEK293 cells were trypsinized and resuspended in Opti-MEM I medium containing 1% FBS, 2 mM MgCl2 and 3 mM kynurenic acid (to reduce cell death caused by activation of NMDARs). Electrophysiological measurements were performed 24–48 h after completion of transfection at room temperature. The extracellular recording solution (ECS) contained (in mM): 160 NaCl, 2.5 KCl, 10 HEPES, 10 D-glucose, 0.2 EDTA, and 0.7 CaCl2 (pH 7.3 with NaOH). […] A microprocessor-controlled rapid perfusion system with a time constant for solution exchange around the recorded cell of ~20 ms was used. Currents were low-pass filtered at 2 kHz using an eight-pole Bessel filter, digitized at 5 kHz, and recorded using the pCLAMP 10 program (Molecular Devices, LLC., San Jose, CA, USA). The co-agonist glycine (100 µM) was applied throughout the recording, and the agonist L-glutamate (1 mM) was used to elicit responses of GluN1/GluN2B receptors.

human AChE (hAChE) = biological target: T3, human AChE (hAChE) (Homo sapiens, UniProt P22303); test: hAChE inhibition, modified Ellman's method; format: biochemical; settings: read-out: % of AChE inhibition
T3 construct: made in house
T3 sequence (P22303 32-614): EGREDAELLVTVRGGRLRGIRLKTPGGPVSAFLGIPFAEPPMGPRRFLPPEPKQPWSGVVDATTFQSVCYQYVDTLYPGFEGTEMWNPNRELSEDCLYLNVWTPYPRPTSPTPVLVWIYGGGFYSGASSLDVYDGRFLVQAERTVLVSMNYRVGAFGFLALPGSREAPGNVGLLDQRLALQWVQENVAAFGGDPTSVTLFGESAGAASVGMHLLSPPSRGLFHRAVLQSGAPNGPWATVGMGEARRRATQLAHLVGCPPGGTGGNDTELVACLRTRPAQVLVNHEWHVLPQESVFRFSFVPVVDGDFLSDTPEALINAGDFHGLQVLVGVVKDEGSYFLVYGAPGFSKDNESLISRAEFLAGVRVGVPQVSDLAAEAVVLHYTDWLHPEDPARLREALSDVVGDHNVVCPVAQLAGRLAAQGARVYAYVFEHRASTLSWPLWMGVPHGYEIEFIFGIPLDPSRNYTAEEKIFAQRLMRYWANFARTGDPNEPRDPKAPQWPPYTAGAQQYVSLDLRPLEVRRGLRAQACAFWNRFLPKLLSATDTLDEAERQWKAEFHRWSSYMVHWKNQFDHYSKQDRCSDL
Protocol: as §1, §2

in vitro = settings: human

T1 sequence (P06276 29-602): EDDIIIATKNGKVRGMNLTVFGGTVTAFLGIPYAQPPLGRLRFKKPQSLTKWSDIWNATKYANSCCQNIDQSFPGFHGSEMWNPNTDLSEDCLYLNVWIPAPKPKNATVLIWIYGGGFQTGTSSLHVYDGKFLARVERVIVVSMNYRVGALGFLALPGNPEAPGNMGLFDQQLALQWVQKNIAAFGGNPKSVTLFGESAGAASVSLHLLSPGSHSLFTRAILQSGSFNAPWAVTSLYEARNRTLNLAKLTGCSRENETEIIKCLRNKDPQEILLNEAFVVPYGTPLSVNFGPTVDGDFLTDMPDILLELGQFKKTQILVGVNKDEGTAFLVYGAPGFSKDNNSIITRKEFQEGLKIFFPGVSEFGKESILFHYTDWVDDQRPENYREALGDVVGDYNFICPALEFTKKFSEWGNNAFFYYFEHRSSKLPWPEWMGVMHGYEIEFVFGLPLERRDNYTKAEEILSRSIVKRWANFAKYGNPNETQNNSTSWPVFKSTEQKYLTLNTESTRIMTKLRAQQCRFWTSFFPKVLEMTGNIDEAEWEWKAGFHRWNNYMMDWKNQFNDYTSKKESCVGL

Row | Compound | inhibition at 1 µM (human BChE (hBChE)) [%] | inhibition at 10 µM (GluN1/GluN2B receptor) [%] | inhibition at 1 µM (human AChE (hAChE)) [%] | IC50 at 24 h (in vitro) [µM]
1 | COc1ccc2nc3c(c(N)c2c1)CCCC3 [7-MEOTA, reference compound] | 18 | ~60 | – | –
2 | C#CCN(C)c1nc(N)c2ccccc2n1 [I-6a, N2-methyl-N2-(prop-2-yn-1-yl)quinazoline-2,4-diamine] | 0 | – | 5 | –
3 | C#CCN(C)c1nc(NC)c2ccccc2n1 [I-6b, N2,N4-dimethyl-N2-(prop-2-yn-1-yl)quinazoline-2,4-diamine] | 3 | – | 5 | –
4 | C#CCN(C)c1nc(NCC)c2ccccc2n1 [I-6c, N4-ethyl-N2-methyl-N2-(prop-2-yn-1-yl)quinazoline-2,4-diamine] | 0 | – | 4 | –
5 | C#CCN(C)c1nc(NC(C)C)c2ccccc2n1 [I-6d, N2-methyl-N2-(prop-2-yn-1-yl)-N4-(propan-2-yl)quinazoline-2,4-diamine] | 1 | – | 4 | –
6 | C#CCN(C)c1nc(NCCOC)c2ccccc2n1 [I-6f, N4-(2-methoxyethyl)-N2-methyl-N2-(prop-2-yn-1-yl)quinazoline-2,4-diamine] | 1 | – | 5 | –
7 | C#CCN(C)c1nc(NC2CC2)c2ccccc2n1 [I-6g, N4-cyclopropyl-N2-methyl-N2-(prop-2-yn-1-yl)quinazoline-2,4-diamine] | 2 | – | 4 | –
8 | C#CCN(C)c1nc(N)c2ccc(Cl)cc2n1 [II-6a, 7-chloro-N2-methyl-N2-(prop-2-yn-1-yl)quinazoline-2,4-diamine] | 2 | – | 7 | –
9 | C#CCN(C)c1nc(NC)c2ccc(Cl)cc2n1 [II-6b, 7-chloro-N2,N4-dimethyl-N2-(prop-2-yn-1-yl)quinazoline-2,4-diamine] | 2 | – | 15 | –
10 | C#CCN(C)c1nc(NCC)c2ccc(Cl)cc2n1 [II-6c, 7-chloro-N4-ethyl-N2-methyl-N2-(prop-2-yn-1-yl)quinazoline-2,4-diamine] | 0 | – | 4 | –
11 | C#CCN(C)c1nc(NC(C)C)c2ccc(Cl)cc2n1 [II-6d, 7-chloro-N2-methyl-N2-(prop-2-yn-1-yl)-N4-(propan-2-yl)quinazoline-2,4-diamine] | 3 | – | 1 | –
12 | C#CCN(C)c1nc(NCCOC)c2ccc(Cl)cc2n1 [II-6f, 7-chloro-N4-(2-methoxyethyl)-N2-methyl-N2-(prop-2-yn-1-yl)quinazoline-2,4-diamine] | 2 | – | 9 | –
13 | C#CCN(C)c1nc(NC2CC2)c2ccc(Cl)cc2n1 [II-6g, 7-chloro-N4-cyclopropyl-N2-methyl-N2-(prop-2-yn-1-yl)quinazoline-2,4-diamine] | 0 | – | 4 | –
14 | C#CCN(C)c1nc(NC)c2cc(OC)ccc2n1 [III-6b, 6-methoxy-N2,N4-dimethyl-N2-(prop-2-yn-1-yl)quinazoline-2,4-diamine] | 1 | – | 4 | –
15 | C#CCN(C)c1nc(NCC)c2cc(OC)ccc2n1 [III-6c, N4-ethyl-6-methoxy-N2-methyl-N2-(prop-2-yn-1-yl)quinazoline-2,4-diamine] | 2 | – | 7 | –
16 | C#CCN(C)c1nc(NC(C)C)c2cc(OC)ccc2n1 [III-6d, 6-methoxy-N2-methyl-N2-(prop-2-yn-1-yl)-N4-(propan-2-yl)quinazoline-2,4-diamine] | 2 | – | 2 | –
17 | C#CCN(C)c1nc(NCCCC)c2cc(OC)ccc2n1 [III-6e, N4-butyl-6-methoxy-N2-methyl-N2-(prop-2-yn-1-yl)quinazoline-2,4-diamine] | 1 | – | 8 | –
18 | C#CCN(C)c1nc(NCCOC)c2cc(OC)ccc2n1 [III-6f, 6-methoxy-N4-(2-methoxyethyl)-N2-methyl-N2-(prop-2-yn-1-yl)quinazoline-2,4-diamine] | 1 | – | 6 | –
19 | C#CCN(C)c1nc(NC2CC2)c2cc(OC)ccc2n1 [III-6g, N4-cyclopropyl-6-methoxy-N2-methyl-N2-(prop-2-yn-1-yl)quinazoline-2,4-diamine] | 0 | – | 5 | –
20 | C#CCN(C)c1nc(NC2CCCCC2)c2cc(OC)ccc2n1 [III-6h, N4-cyclohexyl-6-methoxy-N2-methyl-N2-(prop-2-yn-1-yl)quinazoline-2,4-diamine] | 2 | – | 3 | –
21 | Nc1c2c(nc3ccccc13)CCCC2 [THA, tacrine, reference compound] | – | – | – | 122.11 ± 0.02
